In patent US20240279227A1, “FUSED HETEROCYCLIC DERIVATIVES” (Janssen Sciences Ireland Unlimited Company, priority 2021, published 2024):

Experiments:
[1] = test system: HBV; experiment: Anti-HBV activity in HepG2.117 cell line (intracellular HBV DNA, real-time PCR); assay type: cell-based, hepatitis B virus; conditions: HepG2.117 cells, HBV replication induced, 3 days of treatment, intracellular HBV DNA by real-time PCR
Procedure: The anti HBV activity was measured using the HepG2.117 cell line, a stable, inducibly HBV producing cell line, which replicates HBV in the absence of doxycycline (Tet-off system). The HepG2 cell line is available from ATCCR under number HB-8065. Transfection of the HepG2 cell line can be as described in Sun and Nassal 2006 Journal of Hepatology 45 (2006) 636-645 “Stable HepG2-and Huh7-based human hepatoma cell lines for efficient regulated expression of infectious hepatitis B virus”.
For the antiviral assay, HBV replication was induced, followed by a treatment with serially diluted compound in 96-well plates. After 3 days of treatment, the antiviral activity was determined by quantification of intracellular HBV DNA using real-time PCR and an HBV specific primer set and probe.

[2] = Cytotoxicity, ATPlite Luminescence Assay; assay type: cell-based, human; conditions: human, HepG2 or HepG2.117 cells, 3-days incubation unless marked with *, ATPlite viability
Procedure: Cytotoxicity of the compounds was tested using HepG2 or HepG2.117 cells, incubated for 3 or 4 days in the presence of compounds. The viability of the cells was assessed using the PERKIN ELMER ATPlite Luminescence Assay System.”

[3] = Human liver microsome stability; assay type: in vitro ADME; conditions: 1 μM compound, NADPH 1 mM, pH 7.4, 37° C., 0-60 min; for half-life at 1 μM: human, pooled human liver microsomes, pH 7.4, pooled human liver microsomes 0.5 mg/mL, read-out: HLM Metabolism t1/2
Procedure: Pooled human liver microsomes (0.5 mg/mL) was pre-incubated with 1 μM test compounds or control compounds (verapamil, warfarin and cerivastatin) in 0.1 M phosphate buffer pH 7.4 containing 1 mM MgCl2 at 37° C. The final concentration of DMSO and acetonitrile are 0.05% and 0.2%, respectively. All incubations are performed singularly for each compound. NADPH was added to initiate the reaction with the final concentration of 1 mM and the final incubation volume of 400 μL.
At 6 time points (0, 5, 10, 20, 40 and 60 min) reactions were stopped by the removal of 50 μL of the incubation mixture into plates containing acetonitrile at a of 1:3 (v:v). The plates were centrifuged at 3000 rpm for 10 min at 4° C. to precipitate the protein. Following protein precipitation, the sample supernatants were combined in cassettes of up to 8 compounds. The internal standard was added (1:1 supernatant to internal standard solution) and samples were analyzed using standard LC-MS conditions.
From a plot of ln peak area ratio (compound peak area/internal standard peak area) against time, the gradient of the line is determined. Subsequently, half-life is calculated using the equations below: […]

[4] = Hepatitis B virus, HepG2.117, 72 h

| SMILES | EC50 [1] | CC50 [2] | half-life at 1 μM [3] | EC50 [1, 4] | HLM Metabolism t1/2 ([3]; pooled human liver microsomes 0.5 mg/mL) |
| --- | --- | --- | --- | --- | --- |
| CNC(=O)[C@@H]1CN(C(C)c2ccc(C(C)(C)O)cn2)C(=O)c2c3c(nn21)C[C@@H](C)N(C(=O)c1ccc(Cl)c(Cl)c1)C3 (single isomer, unassigned) [Compound 39A, (3R,7S)-2-(3,4-Dichlorobenzoyl)-9-((R*)-1-(5-(2-hydroxypropan-2-yl)pyridin-2-yl)ethyl)-N,3-dimethyl-10-oxo-1,2,3,4,7,8,9,10-octahydropyrido[4′,3′:3,4]pyrazolo[1,5-a]pyrazine-7-carboxamide] | 1.68 µM | > 50 µM | > 3 h | – | – |
| CNC(=O)[C@@H]1CN(C(C)c2ccc(-n3ncnc3C)cn2)C(=O)c2c3c(nn21)C[C@@H](C)N(C(=O)c1ccc(Cl)c(Cl)c1)C3 (single isomer, unassigned) [Compound 41A, (3R,7S)-2-(3,4-Dichlorobenzoyl)-N,3-dimethyl-9-((R*)-1-(5-(5-methyl-1H-1,2,4-triazol-1-yl)pyridin-2-yl)ethyl)-10-oxo-1,2,3,4,7,8,9,10-octahydropyrido[4′,3′:3,4] pyrazolo[1,5-a]pyrazine-7-carboxamide] | 2.21 µM | > 50 µM | > 3 h | – | – |
| CNC(=O)[C@@H]1CN(C(C)c2ccccn2)C(=O)c2c3c(nn21)C[C@@H](C)N(C(=O)c1ccc(Cl)c(Cl)c1)C3 (single isomer, unassigned) [Compound 37A, (3R,7S)-2-(3,4-Dichlorobenzoyl)-N,3-dimethyl-10-oxo-9-((R*)-1-(pyridin-2-yl)ethyl)-1,2,3,4,7,8,9,10-octahydropyrido[4′,3′:3,4]pyrazolo[1,5-a]pyrazine-7-carboxamide] | – | > 50 µM | > 3 h | 0.089 µM | – |
| CNC(=O)[C@@H]1CN(Cc2ccc(OC(F)F)cc2)C(=O)c2c3c(nn21)C[C@@H](C)N(C(=O)c1ccc(Cl)c(Cl)c1)C3 [Compound 17, (3R,7S)-2-(3,4-Dichlorobenzoyl)-9-(4-(difluoromethoxy)benzyl)-N,3-dimethyl-10-oxo-1,2,3,4,7,8,9,10-octahydropyrido[4′,3′:3,4]pyrazolo[1,5-a]pyrazine-7-carboxamide] | – | 39.1 µM | > 3 h | 0.036 µM | – |
| CNC(=O)[C@@H]1CN(C(C)c2ccc(-c3nnnn3C)cc2)C(=O)c2c3c(nn21)C[C@@H](C)N(C(=O)c1ccc(Cl)c(Cl)c1)C3 (single isomer, unassigned) [Compound 29A, (3R,7S)-2-(3,4-Dichlorobenzoyl)-N,3-dimethyl-9-((R*)-1-(4-(1-methyl-1H-tetrazol-5-yl)phenyl)ethyl)-10-oxo-1,2,3,4,7,8,9,10-octahydropyrido[4′,3′:3,4]pyrazolo[1,5-a]pyrazine-7-carboxamide] | 0.82 µM | > 50 µM | > 3 h | – | – |
| CC(c1ccccn1)N1CCn2nc3c(c2C1=O)CN(C(=O)c1ccc(Cl)c(Cl)c1)[C@H](C)C3 (mixture of isomers) [Ref 3, reference compound] | – | – | 0.11 h | 0.072 µM | – |
| CNC(=O)[C@@H]1CN(C(C)c2ccc(C3CC3)nc2)C(=O)c2c3c(nn21)C[C@@H](C)N(C(=O)c1ccc(Cl)c(Cl)c1)C3 (single isomer, unassigned) [Compound 32A, (3R,7S)-9-((R*)-1-(6-Cyclopropylpyridin-3-yl)ethyl)-2-(3,4-dichlorobenzoyl)-N,3-dimethyl-10-oxo-1,2,3,4,7,8,9,10-octahydropyrido[4′,3′:3,4]pyrazolo[1,5-a]pyrazine-7-carboxamide] | 0.055 µM | > 50 µM | 2.12 h | – | – |
| CNC(=O)[C@@H]1CN([C@@H](C)c2ccc(OC(F)F)cc2)C(=O)c2c3c(nn21)C[C@@H](C)N(C(=O)c1ccc(Cl)c(C(F)F)c1)C3 [Compound 25, (3R,7S)-2-(4-Chloro-3-(difluoromethyl)benzoyl)-9-((S)-1-(4-(difluoromethoxy)phenyl)ethyl)-N,3-dimethyl-10-oxo-1,2,3,4,7,8,9,10-octahydropyrido[4′,3′:3,4]pyrazolo[1,5-a]pyrazine-7-carboxamide] | – | > 50 µM | 1.3 h | 0.01 µM | – |
| CNC(=O)[C@@H]1CN(C(C)c2ccn(CC(F)(F)F)n2)C(=O)c2c3c(nn21)C[C@@H](C)N(C(=O)c1ccc(Cl)c(C(F)(F)F)c1)C3 (single isomer, unassigned) [Compound 14B, (3R,7S)-2-(4-chloro-3-(trifluoromethyl)benzoyl)-N,3-dimethyl-10-oxo-9-((S*)-1-(1-(2,2,2-trifluoroethyl)-1H-pyrazol-3-yl)ethyl)-1,2,3,4,7,8,9,10-octahydropyrido[4′,3′:3,4]pyrazolo[1,5-a]pyrazine-7-carboxamide] | – | > 50 µM | > 3 h | 0.031 µM | – |
| CNC(=O)[C@@H]1CN(C(C)c2cc(F)ccn2)C(=O)c2c3c(nn21)C[C@@H](C)N(C(=O)c1ccc(Cl)c(Cl)c1)C3 (single isomer, unassigned) [Compound 42A, (3R,7S)-2-(3,4-Dichlorobenzoyl)-9-((R*)-1-(4-fluoropyridin-2-yl)ethyl)-N,3-dimethyl-10-oxo-1,2,3,4,7,8,9,10-octahydropyrido[4′,3′:3,4]pyrazolo[1,5-a]pyrazine-7-carboxamide] | 0.28 µM | > 50 µM | > 3 h | – | – |
| C[C@@H]1Cc2nn3c(c2CN1C(=O)c1ccc(Cl)c(Cl)c1)C(=O)N([C@@H](C)c1ccc(C#N)cc1)CC3 [Ref 5, reference compound] | – | – | 0.132 h | 0.022 µM | – |
| CC(c1ccc(OC(F)F)cc1)N1C[C@@H](C(=O)NC2CC2)n2nc3c(c2C1=O)CN(C(=O)c1ccc(Cl)c(C#N)c1)[C@H](C)C3 (single isomer, unassigned) [Compound 26A, (3R,7S)-2-(4-Chloro-3-cyanobenzoyl)-N-cyclopropyl-9-((R*)-1-(4-(difluoromethoxy)phenyl)ethyl)-3-methyl-10-oxo-1,2,3,4,7,8,9,10-octahydropyrido[4′,3′:3,4]pyrazolo[1,5-a]pyrazine-7-carboxamide] | 0.19 µM | 29.7 µM | – | – | >3 h |
| CNC(=O)[C@@H]1CN([C@@H](C)c2cnc(C(F)(F)F)nc2)C(=O)c2c3c(nn21)C[C@@H](C)N(C(=O)c1ccc(Cl)c(Cl)c1)C3 [Compound 4B, (3R,7S)-2-(3,4-dichlorobenzoyl)-N,3-dimethyl-10-oxo-9-((S)-1-(2-(trifluoromethyl)pyrimidin-5-yl)ethyl)-1,2,3,4,7,8,9,10-octahydropyrido[4′,3′:3,4]pyrazolo[1,5-a]pyrazine-7-carboxamide] | – | > 50 µM | > 3 h | 0.16 µM | – |
| CNC(=O)[C@@H]1CN(C(C)c2ccc(-n3cncn3)cc2)C(=O)c2c3c(nn21)C[C@@H](C)N(C(=O)c1ccc(Cl)c(Cl)c1)C3 (single isomer, unassigned) [Compound 2A, (3R,7S)-9-((R*)-1-(4-(1H-1,2,4-triazol-1-yl)phenyl)ethyl)-2-(3,4-dichlorobenzoyl)-N,3-dimethyl-10-oxo-1,2,3,4,7,8,9,10-octahydropyrido[4′,3′:3,4]pyrazolo[1,5-a]pyrazine-7-carboxamide] | 0.042 µM | > 50 µM | > 3 h | – | – |
| CNC(=O)[C@@H]1CN(C(C)c2nc(C(F)(F)F)cs2)C(=O)c2c3c(nn21)C[C@@H](C)N(C(=O)c1ccc(Cl)c(Cl)c1)C3 (single isomer, unassigned) [Compound 44A, (3R,7S)-2-(3,4-Dichlorobenzoyl)-N,3-dimethyl-10-oxo-9-((R*)-1-(4-(trifluoromethyl)thiazol-2-yl)ethyl)-1,2,3,4,7,8,9,10-octahydropyrido[4′,3′:3,4]pyrazolo[1,5-a]pyrazine-7-carboxamide] | – | > 50 µM | > 3 h | 0.12 µM | – |
| C[C@@H]1Cc2nn3c(c2CN1C(=O)c1ccc(Cl)c(Cl)c1)C(=O)N([C@H](C)c1ccc(C#N)cc1)CC3 [Ref 4, reference compound] | – | – | 0.225 h | 0.076 µM | – |
